Experiments:
[1] = system: Dutch-belted pigmented rabbits; assay: Arachidonate induced uveitis, anterior chamber leukocyte infiltration; type: in vivo, rabbit; conditions: topical, concentrations of 0.1, 0.3 and 1%; 0.5% sodium arachidonate challenge; FIG. 12
Method: The rational for this protocol is to use arachidonate to directly produce ocular anterior segment uveitis, as opposed to using lipopolysaccharide (LPS) to indirectly release arachidonic acid.
Conscious male or female Dutch-belted pigmented rabbits weighing 2.5-3 kg were used for all in vivo slit lamp studies. Four animals were employed per test group. The right eye of each animal receiving 35 μl of topically administered test and the contralateral left eye of each animal receiving 35 μl of topically administered vehicle (t=0 minutes), followed 30 minutes later by treatment with 35 μl of 0.5% sodium arachidonate onto the surface of both eyes (t=30 minutes). Both eyes were examined by slit lamp 60 minutes following sodium arachdionate challenge (t=90 minutes) at 16× magnification under both white light and blue light illumination at an approximate angle of 45° through 1 mm and 5 mm slit widths.
Anterior chamber leukocyte infiltration was measured using a numerical scoring system to estimate cell number per field defined by a 5 mm slit width: 0=no cells per field (no response); 1=1-10 cells per field (mild); 2=11-20 cells per field (moderate); 3=[…] cells per field (severe); 4=>50 cells per filed (florid). Results are reported as the mean score value±S.E.M.

[2] = Allergic conjunctival itch (itch-scratch episodes); type: in vivo; conditions: FIGS. 10 and 11, both experiments
Method: The compounds of this invention were tested according to the method described in “Characterization of Receptor Subtypes Involved in Prostanoid-Induced Conjunctival Pruritis and Their Role in Mediating Conjunctival Itching”, Vol. 279, No. 1, (JPET)279, 137-142′ 1996 for their efficacy in alleviating itch.

Structure (SMILES) | effect in model for uveitis (anterior chamber leukocyte infiltration score) [1] | number of itch-scratch episodes [2]
CCC(CC)COc1ccc(Cl)cc1Cn1nc(CCC(=O)O)cc1C [Example 3a, 3-{1-[5-Chloro-2-(2-ethyl-butoxy)-benzyl]-5-methyl-1H-pyrazol-3-yl}-propionic acid] | dose dependent response | significantly lower number of itch-scratch episodes
CCC(CC)COc1ccc(Br)cc1Cn1nc(CCC(=O)O)cc1C [Example 3, 3-{1-[5-Bromo-2-(2-ethyl-butoxy)-benzyl]-5-methyl-1H-pyrazol-3-yl}-propionic acid] | dose dependent response | significantly lower number of itch-scratch episodes

Source: US20140121258A1, “COMPOUNDS ACT AT MULTIPLE PROSTAGLANDIN RECEPTORS GIVING A GENERAL ANTI-INFLAMMATORY RESPONSE” (ALLERGAN, INC., priority 2010, published 2014)
